Measurements as given in patent US20170216252A1, “ANTI-BACTERIAL PYRUVATE KINASE MODULATOR COMPOUNDS, COMPOSITIONS, USES AND METHODS” (SIMON FRASER UNIVERSITY, priority 2014, published 2017).
≈ marks a conversion by molar mass, not a printed value. Like-named read-outs stand apart in the source and are kept apart here.

Legend:
MRSA MW2 (USA400) = assay: Broth microdilution MIC; type: cell-based; details: Staphylococcus aureus, read-out: MIC (μg/mL) G
Experimental: (§1) The antimicrobial activities of PK inhibitor candidates were determined using the 96-well microtiter standard 2-fold serial broth microdilution method as described by CLSI (formerly NCCLS) with the various gram-positive and gram-negative bacteria species mentioned above. Bacteria from a single colony were grown, overnight in either BHI Broth (VRE), mueller hinton broth (S. aureus 29213; MRSA USA400) or L-broth (E. coli, P. aeruginosa, S. typhimuriu, K. Pneumonia and A. baumannii). […] Culture plates were incubated for 18-24 h at 37° C., and optical density at 600 nm (OD600) was measured using a Benchmark Plus™ microplate spectrophotometer (Bio-Rad™). The absorbance control values for the series containing CAMHB and inhibitor were subtracted as background from the corresponding infected wells. The MIC was defined as the lowest concentration of test compound leading to complete inhibition of cell growth in relationship to compound-free control wells as determined by optical density. […] All assays were run in triplicate (Tables 1-6) or duplicate. Experiments were replicated at least twice to verify reproducibility using the above conditions.
(§2) The antimicrobial activity of selected compounds against the gram negative bacteria Klebsiella pneumoniae, Acinetobacter baumannii, E. coli, Pseudomonas aeruginosa and Salmonella typhimurium, as well as additional gram positive bacteria, including drug-resistant strains, was tested according to the procedures provided under “General Methodologies” above.

S. aureus ATCC 29213 = assay: In vitro susceptibility, broth microdilution MIC; type: cell-based, Staphylococcus aureus
Procedure, shortened: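 The MIC against S. aureus 29213 was determined by CLSI 2-fold serial broth microdilution in Mueller Hinton broth. Plates were incubated for 18–24 h at 37 °C and read at OD600 with background subtracted. The MIC was the lowest concentration giving complete growth inhibition versus compound-free wells.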

MRSA PK = target: T1, MRSA PK (Staphylococcus aureus, UniProt Q6GG09); assay: MRSA PK activity, continuous LDH-coupled assay; type: biochemical, S. aureus (MRSA strain Sanger 252)
T1 construct: His tag (pET-28a(+) vector) (N); made in house; host or cells: E. coli BL-21 (DE3)
Procedure, shortened: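 Activity was tracked as the 340 nm absorbance fall from NADH oxidation via coupled LDH, at 30 °C for ≤5 min. Reactions began on adding 15 nM recombinant His-tagged S. aureus PK, with inhibitor DMSO kept ≤1%. Four-parameter dose–response fitting gave IC50.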

VRE#2 (2010A) = assay: Broth microdilution MIC; type: cell-based, vancomycin-resistant Enterococcus; details: Enterococcus, read-out: MIC (μg/mL) F
Experimental: as §1, §2

E. coli (DAS 1-IMP) = assay: microbe, parasite or virus in culture; type: cell-based, Escherichia coli; details: for MIC: Escherichia coli, read-out: MIC (μg/mL) C, E. coli (DAS 1-IMP)
Experimental: as §1, §2

S. pyogenes (ATCC700294) = assay: Broth microdilution MIC; type: cell-based; details: Streptococcus pyogenes
Experimental: as §1, §2

K. pneumoniae (C238) = assay: Broth microdilution MIC; type: cell-based; details: Klebsiella pneumoniae, read-out: MIC (μg/mL) A
Experimental: as §1, §2

S. typhimurium (SL 1344) = assay: Broth microdilution MIC; type: cell-based; details: Salmonella enterica
Experimental: as §1, §2

[1] = test system: A. baumannii (ATCC 19606); assay: Broth microdilution MIC; type: cell-based; details: Acinetobacter baumannii
Experimental: as §1, §2

P. aeruginosa (PA01) = assay: Broth microdilution MIC; type: cell-based; details: Pseudomonas aeruginosa
Experimental: as §1, §2

S. aureus ATCC 29123 = assay: Neutropenic mouse Staphylococcus aureus thigh infection model; type: in vivo; details: vancomycin control, 10 mg/kg IP at 2 and 8 h, 24 h endpoint
Experimental: The antimicrobial activity of compound 178 against S. aureus ATCC 29123 was tested in vivo using the neutropenic mouse Staphylococcus aureus thigh infection model. […] Animals were individually monitored for adverse reactions for 30 min post-infection. […] Vancomycin was administered as a solution in PBS. The test compounds were administered as outlined in Table 12 at 2 and 8 hours post-infection and animals were individually monitored for adverse reactions for 30 min after each injection. All animals were then monitored hourly from 20 hours post infection to the endpoint (t=24 hr post infection). At the indicated timepoint, animals were sacrificed and the injected thigh collected. Quantitative enumeration of bacterial load was determined by plating serial dilutions from homogenized thigh muscles. Homogenized muscle was in a total of 2 mL volume, from which a 1 in 10 dilution was prepared (100 μL into 900 μL saline). From this a series of dilutions were prepared and plated on Mueller Hinton agar plates. […] At the end of this time colony counts were determined and the final CFU per mL calculated.

[2] = Staphylococcus aureus, ATCC29213, S. aureus (ATCC29213), Table 9, read-out: MIC (μg/mL) H
[3] = Staphylococcus aureus, ATCC29213, Table 8, tested at least in duplicate, differing values all given, read-out: MIC
[4] = Table 8, tested at least in duplicate, differing values all given
[5] = ATCC19606, A. baumannii (ATCC 19606), read-out: MIC (μg/mL) B

T1 sequence (Q6GG09 whole entry): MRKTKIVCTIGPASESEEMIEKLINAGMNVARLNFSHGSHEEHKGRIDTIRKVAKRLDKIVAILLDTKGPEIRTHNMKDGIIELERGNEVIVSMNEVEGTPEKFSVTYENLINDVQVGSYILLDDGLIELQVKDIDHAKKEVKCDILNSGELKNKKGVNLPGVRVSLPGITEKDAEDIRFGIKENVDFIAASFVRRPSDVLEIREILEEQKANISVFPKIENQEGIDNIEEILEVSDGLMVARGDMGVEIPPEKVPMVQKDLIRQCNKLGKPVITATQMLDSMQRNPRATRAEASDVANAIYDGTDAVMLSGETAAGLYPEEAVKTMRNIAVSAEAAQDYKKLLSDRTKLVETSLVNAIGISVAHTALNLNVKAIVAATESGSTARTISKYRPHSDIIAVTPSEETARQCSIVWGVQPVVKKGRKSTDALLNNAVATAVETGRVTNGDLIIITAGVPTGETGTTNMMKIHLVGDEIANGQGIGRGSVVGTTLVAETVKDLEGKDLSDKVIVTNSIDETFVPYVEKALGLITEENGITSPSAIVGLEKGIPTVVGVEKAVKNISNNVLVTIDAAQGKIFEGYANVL

For `O=C(c1c(/C=C/c2ccc(Cl)cc2)[nH]c2cc(Br)ccc12)C(F)(F)F` [Compound 168, (E)-1-(6-Bromo-2-(4-chlorostyryl)-1H-indol-3-yl)-2,2,2-trifluoroethanone], the MIC (MRSA MW2 (USA400); MRSA MW2 (USA400)) was 0.5 µg/mL (≈ 1.17 µM), the MIC (S. aureus ATCC 29213; [2]) was 2 µg/mL (≈ 4.67 µM) and the MIC (S. aureus ATCC 29213; [3]) was 1 µg/mL (≈ 2.33 µM). The “MIC” value (S. aureus ATCC 29213; [4]) was 2 µg/mL (≈ 4.67 µM), the IC50 (MRSA PK) was 0.1 to 1 µM and the MIC (VRE#2 (2010A); VRE#2 (2010A)) was 1 µg/mL (≈ 2.33 µM).
With `O=C(c1c(CCc2ccc(Cl)cc2)[nH]c2cc(Br)ccc12)C(F)(F)F` [Compound 167, 1-(6-Bromo-2-(4-chlorophenethyl)-1H-indol-3-yl)-2,2,2-trifluoroethanone] the “MIC (μg/mL) C” value (E. coli (DAS 1-IMP); E. coli (DAS 1-IMP)) was 8 µg/mL (≈ 18.6 µM), the MIC (E. coli (DAS 1-IMP)) was 4 µg/mL (≈ 9.29 µM) and the MIC (S. pyogenes (ATCC700294)) was 2 µg/mL (≈ 4.64 µM). It also gave an MIC (K. pneumoniae (C238); K. pneumoniae (C238)) of 1 µg/mL (≈ 2.32 µM), an MIC (S. typhimurium (SL 1344)) greater than 64 µg/mL and an MIC [1, 5] greater than 64 µg/mL. It also gave an MIC (P. aeruginosa (PA01)) greater than 64 µg/mL, an MIC (S. aureus ATCC 29213; [2]) of 1.5 µg/mL (≈ 3.48 µM) and an MIC (S. aureus ATCC 29213; [3]) of 2 µg/mL (≈ 4.64 µM). For the same compound, the “MIC” value (S. aureus ATCC 29213; [4]) was 1 µg/mL (≈ 2.32 µM), the IC50 (MRSA PK) was 0.1 to 1 µM and the MIC (VRE#2 (2010A); VRE#2 (2010A)) was 1 µg/mL (≈ 2.32 µM).
With `O=C(O)c1c(/C=C/c2ccc(Cl)cc2)[nH]c2cc(Br)ccc12` [Compound 123, (E)-6-Bromo-2-(4-chlorostyryl)-1H-indole-3-carboxylic acid] the MIC (E. coli (DAS 1-IMP)) was 64 µg/mL (≈ 170 µM), the MIC (K. pneumoniae (C238); K. pneumoniae (C238)) was 32 µg/mL (≈ 85 µM) and the MIC (MRSA MW2 (USA400); MRSA MW2 (USA400)) was 32 µg/mL (≈ 85 µM). It also gave an MIC (S. typhimurium (SL 1344)) greater than 64 µg/mL, an MIC [1, 5] of 64 µg/mL (≈ 170 µM) and an MIC (P. aeruginosa (PA01)) greater than 64 µg/mL. The MIC (S. aureus ATCC 29213; [2]) was 16 µg/mL (≈ 42.5 µM), the IC50 (MRSA PK) was 0.1 to 1 µM and the MIC (VRE#2 (2010A); VRE#2 (2010A)) was 32 µg/mL (≈ 85 µM).
In the case of `COc1cccc(OC)c1C(=O)N[C@@H]1C(=O)N2[C@@H]1SC(C)(C)[C@@H]2C(=O)O` [Methicillin, methicillin, reference compound], the MIC (S. pyogenes (ATCC700294)) is reported as 1 µg/mL (≈ 2.63 µM), the MIC (K. pneumoniae (C238); K. pneumoniae (C238)) is reported as 4 µg/mL (≈ 10.5 µM) and the MIC (MRSA MW2 (USA400); MRSA MW2 (USA400)) is reported as 32 µg/mL (≈ 84.1 µM). The MIC [1, 5] was greater than 64 µg/mL, the MIC (S. aureus ATCC 29213; [2]) was 2 µg/mL (≈ 5.26 µM) and the MIC (VRE#2 (2010A); VRE#2 (2010A)) was 64 µg/mL (≈ 168 µM).
`COC(=O)c1c(/C=C/c2ccc(Cl)cc2)[nH]c2cc(Br)ccc12` [Compound 124, (E)-methyl 6-bromo-2-(4-chlorostyryl)-1H-indole-3-carboxylate] gave an MIC (E. coli (DAS 1-IMP)) greater than 64 µg/mL, an MIC (K. pneumoniae (C238); K. pneumoniae (C238)) of 2 µg/mL (≈ 5.12 µM) and an MIC (MRSA MW2 (USA400); MRSA MW2 (USA400)) of 2 µg/mL (≈ 5.12 µM). For the same compound, the MIC (S. typhimurium (SL 1344)) was greater than 64 µg/mL, the MIC [1, 5] was greater than 64 µg/mL and the MIC (P. aeruginosa (PA01)) was greater than 64 µg/mL. For the same compound, the MIC (S. aureus ATCC 29213; [2]) was 2 µg/mL (≈ 5.12 µM), the MIC (S. aureus ATCC 29213; [3]) was 4 µg/mL (≈ 10.2 µM) and the “MIC” value (S. aureus ATCC 29213; [4]) was 2 µg/mL (≈ 5.12 µM). It also gave an IC50 (MRSA PK) of less than 0.05 µM and an MIC (VRE#2 (2010A); VRE#2 (2010A)) of 8 µg/mL (≈ 20.5 µM).
In the case of `CN[C@H](CC(C)C)C(=O)N[C@H]1C(=O)N[C@@H](CC(N)=O)C(=O)N[C@H]2C(=O)N[C@H]3C(=O)N[C@H](C(=O)N[C@H](C(=O)O)c4cc(O)cc(O)c4-c4cc3ccc4O)[C@H](O)c3ccc(c(Cl)c3)Oc3cc2cc(c3O[C@@H]2O[C@H](CO)[C@@H](O)[C@H](O)[C@H]2O[C@H]2C[C@](C)(N)[C@H](O)[C@H](C)O2)Oc2ccc(cc2Cl)[C@H]1O` [Vancomycin, reference compound], the “median CFU/thigh” value (S. aureus ATCC 29123) is reported as 1.91×10^3 CFU/thigh, the MIC (K. pneumoniae (C238)) is reported as 4 µg/mL (≈ 2.76 µM) and the MIC (MRSA MW2 (USA400)) is reported as 1 µg/mL (≈ 0.69 µM). It also gave an MIC ([1]; ATCC19606, read-out: MIC (μg/mL) B) of 64 µg/mL (≈ 44.2 µM), an MIC (S. aureus ATCC 29213; Staphylococcus aureus, ATCC29213) of 1 µg/mL (≈ 0.69 µM) and an MIC (S. aureus ATCC 29213; Staphylococcus aureus, ATCC29213, read-out: MIC (μg/mL) H) of 1 µg/mL (≈ 0.69 µM). The MIC (VRE#2 (2010A); VRE) was 64 µg/mL (≈ 44.2 µM).
